How the values were obtained:
[1] = system: three-dimensional (3D) epidermis model (keratinocytes); experiment: 3D epidermis model, thickness of the epidermis (H&E and Ki67 stained sections); type: cell-based; conditions: 0.01 μM; for Thickness (whole) / Thickness (without stratum corneum): epidermis in stained sections
Procedure: With such 3D assays significant information is obtained about the complex stratification and terminal differentiation process of keratinocytes in a multilayered epidermal tissue with barrier functionality.
Furthermore, paraffin sectioning and a H&E and Ki67 staining was performed. The thickness of the epidermis in the stained sections was measured and compared between MDI 101, all-trans Retinol, all in a concentration of 0.01 μM and the DMSO control (FIG. 1).

[2] = ABTS+ assay, anti-oxidative capacity; type: biochemical; conditions: 10 min at 30° C., 734 nm
Procedure: For the determination of the anti-oxidative capacity, the ABTS+-Assay was performed. The assay principle bases on the reduction and the involved decolourization of the green coloured cationic radical 2,2′-Azinobis(3-ethylbenzothiazoline 6-sulfonic acid) (ABTS+) by antioxidants. The decolourization can be measured spectrophotometrically at 734 nm.
The determination of the anti-oxidative capacity is performed in 96-well microplates from Nunc (Wiesbaden, Germany) and with the microplate reader “Spark” from Tecan (Crailsheim, Germany).
Samples were incubated for 10 min at 30° C. with the 2,2′-Azinobis-(3-ethylbenzothiazoline-6-sulfonate (ABTS+) radical cation (Sigma, St. Louis, USA) prepared by reaction of ABTS+ with potassium persulfate. As a positive control Trolox is always co-tested. The degree of decolourization was determined spectrophotometrically at 734 nm by […]. Results are mean values from 2 independent experiments with quadruple determinations each.
The antioxidative capacity is expressed in IC50 values (concentration that scavenges 50% of the cationic radical relative to the untreated ABTS+ solution), which can be determined by a trend calculation.

[3] = system: intracellular radicals (reactive oxygen species, ROS) in cells; experiment: Dichlorofluorescein (DCF) assay, oxidative stress; type: cell-based; conditions: for ROS mean value / ROS reduction: 24 h incubation, relative to control
Procedure: For the quantification of intracellular radicals, the dichlorofluorescein (DCF) assay was performed. […] By intracellular esterases and oxidation, the nonfluorescent H2DCFDA is converted to the highly fluorescent 2′,7′-dichlorofluorescein (DCF). The nonfluorescent fluorescin (2′,7′-dichlorofluorescein diacetate (DCFH-DA) pass the cell membranes. In the cytoplasm, it is splitted by intracellular esterases and cannot leave out of the cell in this form. The oxidation by intracellularly existing ROS (reactive oxygen species) modifies the molecule so that will become DCF and emit fluorescence.
Determination of the anti-oxidative capacity is performed in 96-well microplates from Nunc (Wiesbaden, Germany) and with the microplate reader “Spark” from Tecan (Crailsheim, Germany).
Cells are seeded in a black 96 well microplate with transparent bottom and incubated at 37° C. After 24 hours the supernatant is decanted and fresh media with 0.1% FBS is succeded. Further 24 hours later the supernatant is decanted again and the test samples are added and incubated for 24 hours. Varying concentrations of MDI 101 in the cell culture medium were tested. As a positive control Trolox is always co-tested. Then the DCF Assay is performed and the fluorescence is measured from bottom of well at EX/EM 485/528 nm. The antioxidative capacity is expressed in percent, which can be determined by rule of proportion in combination with the control.

[4] = Solubility and recrystallization in o/w emulsions (microscopy, polarized light); type: physicochemical
Procedure: Two pre-blends, A1 and A2, both containing 2.5 w/w % of Hydroxypinacolone Retinoate (MDI 101) were produced according to the above recipe. Three o/w emulsions (A, B and C) according to the following recipe were prepared: Heat Phases A and C separately up to 80° C. Disperse Phase B in A. Add Phase C to AB and emulsify by using an Ultra Turrax Stirrer (3 min, 6000 rpm). Add Phase D and neutralize. Allow to cool by using a vane stirrer. The emulsions were equal, except for the addition of MDI 101. […] As the pre-blends contain 2.5 wt.-% MDI 101, the final concentration of MDI 101 in the emulsions A, B and C was 0.05 wt.-% in all emulsions.

[5] = system: cells (proliferation); experiment: CyQUANT Direct Cell Proliferation Assay; type: cell-based; conditions: 0.00005 mM; 72 hours; media with 6% FBS
Procedure: To evaluate the pro-proliferative activity of MDI 101, the CyQUANT® Direct Cell Proliferation Assay was performed. The CyQUANT® Direct assay is based on a cell-permeant DNA-binding dye in combination with a background suppression reagent. As DNA content is highly regulated, cell number estimates are very accurate. The masking dye blocks staining of dead cells and cells with compromised cell membranes, causing only staining of healthy cells. Therefore, the CyQUANT® Direct assay measures proliferation as well as cytotoxicity. The fluorescence can be measured spectrophotometrically from bottom of well with standard green filter sets or wavelengths (EX/EM 508/527 nm).
The proliferation capacity is performed in black 96-well microplates from Corning (Germany) and with the microplate reader “Spark” from Tecan (Crailsheim, Germany).
Cells are seeded in a black 96 well microplate with transparent bottom and incubated at 37° C. and 5% CO2. After 24 hours the supernatant is decanted and the samples are added in fresh media with 6% FBS. As a positive control KGF is always co-tested. […] Then the CyQUANT® Direct assay is performed and the fluorescence is measured from bottom of well at EX/EM 508/527 nm.
The proliferation probability is expressed in percent, which can be determined by rule of proportion in combination with the control.

[6] = system: 3T3 swiss albino mouse fibroblasts; experiment: Cytotoxicity assay (TOX8 kit); type: cell-based; conditions: Mus musculus, Fibroblast; 3T3 fibroblasts, 48 h treatment; concentration in medium lethal for 50% of living cells
Procedure: (§1) The TOX8 (Sigma Aldrich) Kit was used to determine cytotoxicity retinoic acid, 3,3-dimethyl-2-oxobutyl ester (MDI 101) on 3T3 swiss albino mouse fibroblasts. The 3T3 were cultivated in DMEM medium (Capricorn) including 10% FBS, 1% Penicillin/Streptomycin and 100 nM sodium selenite at 37° C. and 5% CO2. For the cytotoxicity experiment, 3T3 were seeded into 96-well microtiter plate. After 24 hours incubation and a confluence of 30 to 40% the cells were treated with MDI 101 in four different concentrations for 48 h. Test substance was pre-diluted in DMSO, further dilutions were performed in equal medium with 5% FBS. After 48 h a microscopic estimation was carried out and the cells were incubated with TOX8-Kit for two hours at 37° C. and 5% CO2. The absorbance of a converted dye was measured by spectrophotometry at a wavelength of 600 nm. Bioreduction of the dye reduces the amount of its oxidized form (blue) and concomitantly increases the fluorescent intermediate (red), wherein the mechanism and applicability of the test is independent of the cell type. Cell viability was analyzed relative to the solvent-control. The inhibitory concentrations for 50% viability (IC50) and 80% (IC20) were calculated.
(§2) The specific concentration of MDI 101 in the cell culture medium, which is lethal for 20% (IC20) and for 50% (IC50) of living cells was determined: […]

[7] = Cytotoxicity assay (TOX8 kit); type: cell-based, mouse; conditions: mouse, 3T3 swiss albino mouse fibroblasts; 3T3 fibroblasts, 48 h treatment; concentration in medium lethal for 20% of living cells (80% viability)
Procedure: as §1, §2

Solubility after pre-solving in diisopropyl adipate ([4]; pre-solved in diisopropyl adipate, recrystallization could be avoided) | Solubility in cosmetic or pharmaceutical compositions (e.g. emulsions) ([4]; sole powder) | Compound | Thickness (whole) [1] [μm] | Thickness (without stratum corneum) [1] [μm] | Mean inhibition ([2]; 2 μM) [%] | Mean inhibition ([2]; 25 μM) [%] | Mean inhibition ([2]; 50 μM) [%] | Mean inhibition ([2]; 250 μM) [%] | Mean inhibition ([2]; 500 μM) [%] | Effect on the thickness of the epidermis (in words) ([1]; compared with all-trans Retinol in the same concentration) | ROS mean value ([3]; 0.002 μM) [%] | ROS reduction ([3]; 0.002 μM) [%] | ROS mean value ([3]; 0.02 μM) [%] | ROS reduction ([3]; 0.02 μM) [%] | Anti-oxidative effect (in words) ([3]; concentrations which should have no cytotoxic effect) | Mean proliferation compared to control (100%) [5] [%] | IC50 [6] [µM] | IC20 at 48 h [7] [µM]
 |  | CC1=C(/C=C/C(C)=C/C=C/C(C)=C/CO)C(C)(C)CCC1 [All-trans Retinol, reference compound] | 150 | 85 |  |  |  |  |  |  |  |  |  |  |  |  |  | 
strongly improved the solubility | poor solubility | CC1=C(/C=C/C(C)=C/C=C/C(C)=C/C(=O)OCC(=O)C(C)(C)C)C(C)(C)CCC1 [MDI 101, retinoic acid, 3,3-dimethyl-2-oxobutyl ester] | 157 | 112.5 | 8.8 | 17.7 | 27.3 | 83.3 | 96.4 | better than the effect of all-trans Retinol | 75 | 25 | 23 | 77.5 | anti-oxidative effect | 125 | 263 | 171

Source: patent US11801210B2, “Retinol replacement in skin treatment” (SYMRISE AG, priority 2018, dated 2023)
